{"source": "paper PMC3448795", "about": "(Biochemistry, 2012)", "key": {"human S100B [1]": {"target": "T1, human S100B (Homo sapiens, UniProt P04271)", "T1 sequence (P04271 2-92 limits assumed)": "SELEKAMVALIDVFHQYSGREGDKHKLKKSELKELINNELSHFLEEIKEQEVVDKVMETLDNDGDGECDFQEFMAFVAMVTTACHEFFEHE", "assay": "Isothermal titration calorimetry", "assay_type": "binding"}, "human S100B [2]": {"target": "T1, human S100B", "assay": "NMR 1H-15N HSQC titration with LineShapeKin line shape analysis", "assay_type": "binding", "conditions": "for Kon (Table 3) / Kon (Table 4) / Kon (Table 2): low salt; for Kon (Table 2): Kd from ITC"}, "[3]": {"conditions": "calculated from Kd and Koff of Table 3"}, "[4]": {"conditions": "calculated from Kd and Koff of Table 4"}, "[5]": {"conditions": "calculated from Kd and Koff, 35°C"}}, "note": "Where two headings read alike, the source gives them in different places. Peptide text beside a SMILES is read from it."}
{"smiles": "CC(=O)N[C@@H](CCC(=O)O)C(=O)N[C@H](C(=O)N[C@@H](CC(C)C)C(=O)N[C@H](C(=O)N[C@@H](CCCNC(=N)N)C(=O)N1CCC[C@H]1C(=O)N[C@@H](CCCCN)C(=O)N1CCC[C@H]1C(=O)N[C@@H](CC(C)C)C(=O)N[C@@H](CC(C)C)C(=O)N[C@@H](CC(C)C)C(=O)N[C@@H](CCCCN)C(=O)N[C@@H](CC(C)C)C(=O)N[C@@H](CC(C)C)C(=O)N[C@@H](CCCCN)C(=O)N[C@@H](CO)C(=O)N[C@H](C(=O)NCC(=O)N[C@@H](C)C(=O)N[C@@H](Cc1ccc(O)cc1)C(N)=O)C(C)C)C(C)C)[C@@H](C)O", "note": "[HDM2] (Ac-ETLVRPKPLLLKLLKSVGAY-NH2)", "values": [{"measurement": "Kd", "setting": "human S100B [1]", "value": "500 ± 200", "unit": "nM"}, {"measurement": "Kon (Table 3)", "setting": "human S100B [2]; [3]", "value": "160 ± 70 1×10^7 M^-1 s^-1"}, {"measurement": "Kon (Table 4)", "setting": "human S100B [2]; [4]", "value": "100 ± 40 1×10^7 M^-1 s^-1"}, {"measurement": "Kon (Table 2)", "setting": "human S100B [2]; [5]", "value": "30 ± 11 1×10^7 M^-1 s^-1"}, {"measurement": "kon", "setting": "human S100B [2]; read-out: Kon (text, Table 2 analysis)", "value": "2.8e+08", "unit": "M⁻¹ s⁻¹"}]}
{"smiles": "CC[C@H](C)[C@H](NC(=O)[C@H](CCCCN)NC(=O)[C@H](CC(C)C)NC(=O)[C@H](CC(C)C)NC(=O)[C@@H]1CCCN1C(=O)[C@H](CC(C)C)NC(=O)[C@H](CCCCN)NC(=O)[C@@H]1CCCN1C(=O)[C@H](CCCNC(=N)N)NC(=O)[C@@H](NC(=O)[C@H](CCC(N)=O)NC(=O)[C@H](CC(N)=O)NC(C)=O)C(C)C)C(=O)N[C@@H](CC(C)C)C(=O)N[C@@H](Cc1c[nH]cn1)C(=O)N[C@@H](C)C(=O)N[C@@H](C)C(=O)NCC(=O)N[C@@H](C)C(=O)N[C@@H](CCC(N)=O)C(=O)N[C@@H](Cc1ccc(O)cc1)C(N)=O", "note": "[HDM4] (Ac-NQVRPKLPLLKILHAAGAQY-NH2)", "values": [{"measurement": "Kd", "setting": "human S100B [1]", "value": "70 ± 30", "unit": "nM"}, {"measurement": "Kon (Table 3)", "setting": "human S100B [2]; [3]", "value": "3 ± 1 1×10^7 M^-1 s^-1"}]}
{"smiles": "CC(=O)N[C@@H](CCCCN)C(=O)N[C@@H](CCCNC(=N)N)C(=O)N[C@@H](CC(C)C)C(=O)N[C@@H](CCCNC(=N)N)C(=O)N[C@@H](CCCNC(=N)N)C(=O)N[C@@H](CO)C(=O)N[C@@H](C)C(=O)N[C@@H](Cc1c[nH]cn1)C(=O)N[C@@H](C)C(=O)N[C@@H](CCCNC(=N)N)C(=O)N[C@@H](CCCCN)C(=O)N[C@@H](CCC(=O)O)C(=O)N[C@H](C(=O)N[C@@H](CCC(=O)O)C(=O)N[C@@H](Cc1ccccc1)C(=O)N[C@@H](CC(C)C)C(=O)N[C@@H](CCCNC(=N)N)C(=O)N[C@@H](CC(C)C)C(=O)N[C@@H](CCCCN)C(=O)N[C@@H](CCCNC(=N)N)C(=O)N[C@H](C(=O)N[C@@H](CCCNC(=N)N)C(=O)N[C@@H](CC(C)C)C(=O)NCC(=O)N[C@@H](CC(C)C)C(=O)N[C@@H](CCC(=O)O)C(=O)N[C@@H](Cc1ccc(O)cc1)C(N)=O)[C@@H](C)O)[C@@H](C)O", "note": "[NDR] (Ac-KRLRRSAHARKETEFLRLKRTRLGLEY-NH2)", "values": [{"measurement": "Kon, first peptide binding event", "setting": "human S100B [2]; bounds from simulated Koff and ITC Kd1", "value": "13-63 1×10^7 M^-1 s^-1"}, {"measurement": "Kon, second peptide binding event", "setting": "human S100B [2]; bounds from simulated Koff and ITC Kd2", "value": "1-10 1×10^7 M^-1 s^-1"}]}
{"smiles": "CSCC[C@H](NC(=O)[C@H](CC(C)C)NC(=O)[C@H](CCCCN)NC(=O)[C@H](CCCCN)NC(=O)[C@H](Cc1c[nH]cn1)NC(=O)[C@H](CCCNC(=N)N)NC(=O)[C@H](CO)NC(=O)[C@@H](NC(=O)[C@H](CO)NC(=O)[C@H](CCC(N)=O)NC(=O)CNC(=O)[C@H](CCCCN)NC(=O)[C@H](CCCCN)NC(=O)[C@H](CO)NC(=O)[C@H](CCCCN)NC(=O)[C@H](CC(C)C)NC(=O)[C@H](Cc1c[nH]cn1)NC(=O)[C@H](CO)NC(=O)[C@H](Cc1ccc(O)cc1)NC(C)=O)[C@@H](C)O)C(=O)N[C@@H](Cc1ccccc1)C(=O)N[C@@H](CCCCN)C(=O)N[C@H](C(=O)N[C@@H](CCC(=O)O)C(N)=O)[C@@H](C)O", "note": "[p53]", "values": [{"measurement": "Kd", "setting": "human S100B [1]", "value": "2000 ± 1000", "unit": "nM"}, {"measurement": "ΔCp, exp, high salt", "setting": "human S100B [1]; slope of ΔHcal versus temperature, ITC, buffer plus 120 mM NaCl", "value": "-1.2 ± 0.3", "unit": "kJ·mol^-1 K^-1"}, {"measurement": "Kd", "setting": "human S100B [2]; Kd, App (Table 4), high salt, LineShapeKin, NMR only, 35°C, from 2D matrix", "value": "10 ± 2", "unit": "µM"}, {"measurement": "Kon (Table 3), high salt", "setting": "human S100B [2]; calculated from Kd and Koff of Table 3, high salt", "value": "7.5 ± 1.5 1×10^7 M^-1 s^-1"}, {"measurement": "Kon (Table 3)", "setting": "human S100B [2]; [3]", "value": "80 ± 30 1×10^7 M^-1 s^-1"}, {"measurement": "Kon (Table 4), high salt", "setting": "human S100B [2]; calculated from Kd and Koff of Table 4, high salt", "value": "10 ± 2 1×10^7 M^-1 s^-1"}, {"measurement": "Kon (Table 4)", "setting": "human S100B [2]; [4]", "value": "100 ± 40 1×10^7 M^-1 s^-1"}, {"measurement": "Kon (Table 2), high salt", "setting": "human S100B [2]; calculated from Kd and Koff, 35°C, high salt", "value": "3 ± 1 1×10^7 M^-1 s^-1"}, {"measurement": "Kon (Table 2)", "setting": "human S100B [2]; [5]", "value": "40 ± 16 1×10^7 M^-1 s^-1"}, {"measurement": "koff", "setting": "human S100B [2]; read-out: Koff (Table 3), high salt, LineShapeKin, NMR only, 35°C, high salt", "value": "750 ± 150", "unit": "s⁻¹"}, {"measurement": "koff", "setting": "human S100B [2]; read-out: Koff (Table 4), high salt, LineShapeKin, NMR only, 35°C, high salt, from 2D matrix", "value": "1000 ± 200", "unit": "s⁻¹"}, {"measurement": "kon", "setting": "human S100B [2]; read-out: Kon (text, Table 3 analysis)", "value": "8e+08", "unit": "M⁻¹ s⁻¹"}]}
